Laboratory results published in BindingDB's records for patent US20240277683 (Ctxt, 2024).

What was measured:
[1] = molecular target: Histone acetyltransferase KAT7 (Homo sapiens, UniProt O95251); test: Acetyltransferase Biochemical Assay
Experimental: (§1) The reactions were performed in assay buffer (100 mM Tris-HCl, pH7.8, 15 mM NaCl, 1 mM EDTA, 0.01% Tween-20, 1 mM Dithiothreitol and 0.01% m/v chicken egg white albumin). […] 11-point dilution series of the test compounds were prepared in DMSO; a volume of 100 nL was transferred using a pin tool into assay plates containing substrates, […] control reactions were included on the same plates and received the same amount of DMSO as the compound treated wells. After adding all reagents, the plates were sealed with adhesive seals and incubated for 90 min at room temperature. An additional 4 uL of assay buffer containing AlphaScreen Protein A acceptor beads […] was then added.

[2] = molecular target: Histone acetyltransferase KAT5 (Homo sapiens, UniProt Q92993); test: Acetyltransferase Biochemical Assay
Experimental: as §1

Histone acetyltransferase KAT5, sequence (Q92993 whole entry): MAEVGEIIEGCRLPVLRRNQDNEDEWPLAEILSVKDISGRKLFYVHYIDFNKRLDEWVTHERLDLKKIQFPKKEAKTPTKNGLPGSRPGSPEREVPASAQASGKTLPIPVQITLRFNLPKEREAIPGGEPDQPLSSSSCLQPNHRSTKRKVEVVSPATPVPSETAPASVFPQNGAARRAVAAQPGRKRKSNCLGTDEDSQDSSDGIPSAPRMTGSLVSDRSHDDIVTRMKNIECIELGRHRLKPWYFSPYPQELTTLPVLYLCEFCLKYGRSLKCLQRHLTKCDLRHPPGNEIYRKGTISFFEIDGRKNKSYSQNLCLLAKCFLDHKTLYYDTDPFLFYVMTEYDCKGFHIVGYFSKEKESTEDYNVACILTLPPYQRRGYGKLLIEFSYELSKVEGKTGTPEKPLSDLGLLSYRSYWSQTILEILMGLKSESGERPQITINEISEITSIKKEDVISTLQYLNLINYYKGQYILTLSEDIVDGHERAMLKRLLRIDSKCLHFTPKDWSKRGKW
Histone acetyltransferase KAT7, sequence (O95251 whole entry): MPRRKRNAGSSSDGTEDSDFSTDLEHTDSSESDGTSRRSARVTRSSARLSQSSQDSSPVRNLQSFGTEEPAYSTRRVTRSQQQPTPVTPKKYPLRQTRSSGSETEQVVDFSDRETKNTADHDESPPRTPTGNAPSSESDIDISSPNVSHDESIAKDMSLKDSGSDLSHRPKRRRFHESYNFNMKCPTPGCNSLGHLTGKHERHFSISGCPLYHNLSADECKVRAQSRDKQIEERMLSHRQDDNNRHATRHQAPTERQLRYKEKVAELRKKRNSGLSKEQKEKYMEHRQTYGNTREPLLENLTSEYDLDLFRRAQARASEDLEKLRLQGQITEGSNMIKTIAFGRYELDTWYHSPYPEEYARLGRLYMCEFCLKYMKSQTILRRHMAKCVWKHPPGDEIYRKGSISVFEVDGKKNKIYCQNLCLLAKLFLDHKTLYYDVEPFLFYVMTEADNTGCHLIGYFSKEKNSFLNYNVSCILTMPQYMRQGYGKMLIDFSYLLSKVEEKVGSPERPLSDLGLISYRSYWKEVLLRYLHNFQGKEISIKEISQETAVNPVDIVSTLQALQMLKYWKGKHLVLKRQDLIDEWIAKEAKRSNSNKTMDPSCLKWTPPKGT

| SMILES | IC50 [1] [µM] | IC50 [2] [µM] |
| --- | --- | --- |
| O=S(=O)(Nc1cc(-c2ccccc2)on1)C1CC1 [US20240277683, Example 29] | > 125 | > 125 |
| O=S(=O)(Nc1cc(-c2ccccc2)on1)c1ccc2c(c1)CCCC2 [US20240277683, Example 76] | – | > 125 |
| COc1ccccc1-c1nnc(NS(=O)(=O)C2CCNCC2)s1 [US20240277683, Example 129] | – | > 125 |
